Results taken from patent US20180155344A1, “TRICYCLIC PIPERIDINE COMPOUNDS” (ACTELION PHARMACEUTICALS LTD, priority 2015, published 2018).

Target: T1, human TPH1 (Homo sapiens, UniProt P17752)
T1 sequence (P17752 1-444): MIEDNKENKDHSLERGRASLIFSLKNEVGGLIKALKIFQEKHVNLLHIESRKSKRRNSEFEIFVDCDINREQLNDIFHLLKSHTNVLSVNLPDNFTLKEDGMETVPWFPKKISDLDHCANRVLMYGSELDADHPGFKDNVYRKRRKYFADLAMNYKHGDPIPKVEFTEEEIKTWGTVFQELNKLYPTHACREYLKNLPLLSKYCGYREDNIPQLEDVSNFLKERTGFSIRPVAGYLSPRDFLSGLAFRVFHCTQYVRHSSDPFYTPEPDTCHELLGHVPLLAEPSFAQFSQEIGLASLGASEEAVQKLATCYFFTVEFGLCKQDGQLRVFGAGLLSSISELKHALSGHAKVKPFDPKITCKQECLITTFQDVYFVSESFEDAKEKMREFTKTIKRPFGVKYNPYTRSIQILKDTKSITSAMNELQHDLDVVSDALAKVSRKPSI
Assay: biochemical
Conditions: not given
Procedure, shortened: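 Inhibition is derived from 5-hydroxy-L-tryptophan fluorescence (540 nm emission, 300 nm excitation) after perchloric acid stop, relative to DMSO vehicle. Recombinant full-length human enzyme (40-80 nM) reacts with 40 μM tryptophan plus 100 μM methyltetrahydropterin, pH 7.6 Tris/DTT/catalase, 15° C, 60 min.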

Row | IC50 | Compound
1 | 101 nM | CN(C)Cc1csc(C2c3c(nc4ccccn34)CCN2C(=O)COc2ccc(N3CCOCC3)nc2Cl)c1 (centres unmarked) [Example 1.7.1, 2-((2-chloro-6-morpholinopyridin-3-yl)oxy)-1-(1-(4-((dimethylamino)methyl)thiophen-2-yl)-3,4-dihydroimidazo[1,2-a:5,4-c′]dipyridin-2(1H)-yl)ethan-1-one]
2 | 13 nM | O=C(COc1cccnc1C(F)(F)F)N1CCc2nc3ccccn3c2C1c1ccc(C2CC2)cc1F (centres unmarked) [Example 1.5.6, 1-(1-(4-cyclopropyl-2-fluorophenyl)-3,4-dihydroimidazo[1,2-a:5,4-c′]dipyridin-2(1H)-yl)-2-((2-(trifluoromethyl)pyridin-3-yl)oxy)ethan-1-one]
3 | 118 nM | CCc1ccccc1OCC(=O)N1CCc2nc3cc(C(F)(F)F)ccn3c2C1c1ccc(OC)c(OC)c1 (centres unmarked) [Example 3.1.28]
4 | 113 nM | CS(=O)(=O)Nc1ccc(OCC(=O)N2CCc3nc4ccccn4c3C2c2ccc(OC(F)(F)F)cc2F)c(Cl)n1 (centres unmarked) [Example 1.19.1, N-(6-chloro-5-(2-(1-(2-fluoro-4-(trifluoromethoxy)phenyl)-3,4-dihydroimidazo[1,2-a:5,4-c′]dipyridin-2(1H)-yl)-2-oxoethoxy)pyridin-2-yl)methanesulfonamide0.71]
5 | 9 nM | CCc1cc2nc3c(n2cc1C)C(c1ccc(OC)c(OC)c1)N(C(=O)COc1ccc2ccccc2c1CC)CC3 (centres unmarked) [Example 6.1.3, 1-(1-(3,4-dimethoxyphenyl)-7-ethyl-8-methyl-3,4-dihydroimidazo[1,2-a:5,4-c′]dipyridin-2(1H)-yl)-2-((1-ethylnaphthalen-2-yl)oxy)ethan-1-one]
6 | 30 nM | O=C(COc1ccc(CN2CCOCC2)cc1Cl)N1CCc2nc3cc(C(F)(F)F)ccn3c2C1c1ccc(Cl)cn1 (centres unmarked) [Example 3.58.1, 2-(2-chloro-4-(morpholinomethyl)phenoxy)-1-(1-(5-chloropyridin-2-yl)-7-(trifluoromethyl)-3,4-dihydroimidazo[1,2-a:5,4-c′]dipyridin-2(1H)-yl)ethan-1-one]
7 | 18 nM | CCOc1ccc(C2c3c(nc4cc(C(F)(F)F)ccn34)CCN2C(=O)COc2ccc(CN3CCOCC3)cc2Cl)cn1 (centres unmarked) [Example 3.7.1, 2-(2-chloro-4-(morpholinomethyl)phenoxy)-1-(1-(6-ethoxypyridin-3-yl)-7-(trifluoromethyl)-3,4-dihydroimidazo[1,2-a:5,4-c′]dipyridin-2(1H)-yl)ethan-1-one]
8 | 36 nM | O=C(NC1CC1)c1ccc(OCC(=O)N2CCc3nc4ccccn4c3C2c2ccc(Cl)cc2F)c(C2CC2)n1 (centres unmarked) [Example 1.4.13, 5-(2-(1-(4-chloro-2-fluorophenyl)-3,4-dihydroimidazo[1,2-a:5,4-c′]dipyridin-2(1H)-yl)-2-oxoethoxy)-N,6-dicyclopropylpicolinamide]
9 | 238 nM | O=C(COc1ccc(C(F)(F)F)cc1Cl)N1CCc2nc3cccnn3c2C1c1ncc(C2CC2)cc1F (centres unmarked) [Example 16.2.5, 2-(2-chloro-4-(trifluoromethyl)phenoxy)-1-(9-(5-cyclopropyl-3-fluoropyridin-2-yl)-6,9-dihydropyrido[4′,3′:4,5]imidazo[1,2-b]pyridazin-8(7H)-yl)ethan-1-one]
10 | 43 nM | CCc1cc(Br)ccc1OCC(=O)N1CCc2nc3cc(C(F)(F)F)ccn3c2C1c1ccc(OC)c(OC)c1 (centres unmarked) [Example 3.1.31, 2-(4-bromo-2-ethylphenoxy)-1-(1-(3,4-dimethoxyphenyl)-7-(trifluoromethyl)-3,4-dihydroimidazo[1,2-a:5,4-c′]dipyridin-2(1H)-yl)ethan-1-one]
11 | 38 nM | CS(=O)(=O)Nc1ccc(OCC(=O)N2CCc3nc4ccccn4c3C2c2ccc(OCCO)cc2F)c(Cl)n1 (centres unmarked) [Example 1.22.2, N-(6-Chloro-5-(2-(1-(2-fluoro-4-(2-hydroxyethoxy)phenyl)-3,4-dihydroimidazo[1,2-a:5,4-c′]dipyridin-2(1H)-yl)-2-oxoethoxy)pyridin-2-yl)methanesulfonamide]
12 | 9 nM | COc1ccc(C2c3c(nc4ccccn34)CCN2C(=O)COc2ccc3ccccc3c2Br)cc1OC (centres unmarked) [Example 1.1.8, 2-((1-bromonaphthalen-2-yl)oxy)-1-(1-(3,4-dimethoxyphenyl)-3,4-dihydroimidazo[1,2-a:5,4-c′]dipyridin-2(1H)-yl)ethan-1-one]
13 | 12 nM | COc1ccc([C@@H]2c3c(nc4cc(Cl)ccn34)CCN2C(=O)COc2ccc(N3CCOCC3)cc2Cl)c(F)c1 [Example 2.3.4, 1-((1R)-7-chloro-1-(2-fluoro-4-methoxyphenyl)-3,10a-dihydroimidazo[1,2-a:5,4-c′]dipyridin-2(1H)-yl)-2-(2-chloro-4-morpholinophenoxy)ethan-1-one]
14 | 92 nM | CCOC(=O)c1cc(OCC(=O)N2CCc3nc4ccccn4c3C2c2ccc(OC)c(OC)c2)c(CC)cc1C (centres unmarked) [Example 1.1.10, ethyl 5-(2-(1-(3,4-dimethoxyphenyl)-3,4-dihydroimidazo[1,2-a:5,4-c′]dipyridin-2(1H)-yl)-2-oxoethoxy)4-ethyl-2-methylbenzoate]
15 | 7 nM | COc1ccc(C2c3c(nc4cc(C(F)(F)F)ccn34)CCN2C(=O)COc2ccc(CN3CCOCC3)cc2Cl)c(F)c1 (centres unmarked) [Example 3.3.2, 2-(2-chloro-4-(morpholinomethyl)phenoxy)-1-(1-(2-fluoro-4-methoxyphenyl)-7-(trifluoromethyl)-3,4-dihydroimidazo[1,2-a:5,4-c′]dipyridin-2(1H)-yl)ethan-1-one]
16 | 10 nM | CS(=O)(=O)Nc1ccc(OCC(=O)N2CCc3nc4ccccn4c3C2c2ccc(Cl)cc2F)c(Cl)n1 (centres unmarked) [Example 1.4.7, N-(6-chloro-5-(2-(1-(4-chloro-2-fluorophenyl)-3,4-dihydroimidazo[1,2-a:5,4-c′]dipyridin-2(1H)-yl)-2-oxoethoxy)pyridin-2-yl)methanesulfonamide]
17 | 949 nM | CN(C)C(=O)c1ccc(OC(C)(C)C(=O)N2CCc3nc4ccccn4c3C2c2ccc(Cl)cc2F)c(Cl)n1 (centres unmarked) [Example 1.4.17, 6-chloro-5-((1-(1-(4-chloro-2-fluorophenyl)-3,4-dihydroimidazo[1,2-a:5,4-c′]dipyridin-2(1H)-yl)-2-methyl-1-oxopropan-2-yl)oxy)-N,N-dimethylpicolinamide]
18 | 122 nM | COc1ccc(C2c3c(nc4ccc(F)cn34)CCN2C(=O)COc2ccc3ccccc3c2)cc1OC (centres unmarked) [Example 11.1.1, 1-(1-(3,4-dimethoxyphenyl)-8-fluoro-3,4-dihydroimidazo[1,2-a:5,4-c′]dipyridin-2(1H)-yl)-2-(naphthalen-2-yloxy)ethan-1-one]
19 | 488 nM | O=C(COc1ccc(CN2CCOCC2)cc1Cl)N1CCc2nc3cc(C(F)(F)F)ccn3c2C1c1cccnc1 (centres unmarked) [Example 3.36.2, 2-(2-chloro-4-(morpholinomethyl)phenoxy)-1-(1-(pyridin-3-yl)-7-(trifluoromethyl)-3,4-dihydroimidazo[1,2-a:5,4-c′]dipyridin-2(1H)-yl)ethan-1-one]
20 | 16 nM | O=C(COc1ccc(N2CCOCC2)nc1Cl)N1CCc2nc3ccccn3c2C1c1nc(-c2ccccc2)no1 (centres unmarked) [Example 1.8.1, 2-((2-chloro-6-morpholinopyridin-3-yl)oxy)-1-(1-(3-phenyl-1,2,4-oxadiazol-5-yl)-3,4-dihydroimidazo[1,2-a:5,4-c′]dipyridin-2(1H)-yl)ethan-1-one]
21 | 19 nM | COc1ccc(C2c3c(nc4ccccn34)CCN2C(=O)COc2ccc(C(=O)NC3CC3)nc2Cl)c(F)c1 (centres unmarked) [Example 1.3.3, 6-chloro-N-cyclopropyl-5-(2-(1-(2-fluoro-4-methoxyphenyl)-3,4-dihydroimidazo[1,2-a:5,4-c′]dipyridin-2(1H)-yl)-2-oxoethoxy)picolinamide]
22 | 82 nM | O=C(COc1ccc2ccccc2c1)N1CCc2nc3cc(C(F)(F)F)ccn3c2C1c1cccnc1F (centres unmarked) [Example 3.2.2, 1-(1-(2-fluoropyridin-3-yl)-7-(trifluoromethyl)-3,4-dihydroimidazo[1,2-a:5,4-c′]dipyridin-2(1H)-yl)-2-(naphthalen-2-yloxy)ethan-1-one]
23 | 54 nM | O=C(COc1ccc(CN2CCOCC2)cc1Cl)N1CCc2nc3cc(C(F)(F)F)ccn3c2C1c1ccc(OC(F)F)cc1 (centres unmarked) [Example 3.26.2, 2-(2-chloro-4-(morpholinomethyl)phenoxy)-1-(1-(4-(difluoromethoxy)phenyl)-7-(trifluoromethyl)-3,4-dihydroimidazo[1,2-a:5,4-c′]dipyridin-2(1H)-yl)ethan-1-one]
24 | 5 nM | COc1cc(F)c(C2c3c(nc4cc(C(F)(F)F)ccn34)CCN2C(=O)COc2ccc(CN3CCOCC3)cc2Cl)cc1OC (centres unmarked) [Example 3.18.2, 2-(2-chloro-4-(morpholinomethyl)phenoxy)-1-(1-(2-fluoro-4,5-dimethoxyphenyl)-7-(trifluoromethyl)-3,4-dihydroimidazo[1,2-a:5,4-c′]dipyridin-2(1H)-yl)ethan-1-one]

Same assay, conditions: Table 1; full length human TPH1, 40 μM L-tryptophan, 15° C., 60 minutes; mean if determined several times

Row | Compound | IC50
25 | 1-(1-(4-(aminomethyl)phenyl)-7-(trifluoromethyl)-3,4-dihydroimidazo[1,2-a:5,4-c′]dipyridin-2(1H)-yl)-2-(naphthalen-2-yloxy)ethan-1-one [Example 3.31.1] | 73 nM
26 | 2-((6-(aminomethyl)-2-chloropyridin-3-yl)oxy)-1-(9-(5-cyclopropyl-3-fluoropyridin-2-yl)-6,9-dihydropyrido[4′,3′:4,5]imidazo[1,2-b]pyridazin-8(7H)-yl)ethan-1-one [Example 16.2.4] | 401 nM
